Measurements from patent US4980349A, “Sulphonamides derived from diarylmethanes, the processes for preparing them and pharmaceutical compositions containing them” (SANOFI, priority 1986, dated 1990).

Experiments:
[1] = Oral LD50 in mice; details: mouse, in vivo, female Swiss CF mice, 20 g, 14 days observation, read-out: approximate oral LD50
Procedure: (§1) The compounds were suspended in a 3% strength solution of gum arabic so as to supply, in a volume of 2 ml for the rats, the equivalent of 50, 100, 200, 400 and 800 mg/kg, and, in a volume of 1 ml for the mice, 100, 200, 400, 800 and 1,600 mg/kg and, for 1573 and 1579, 3,200 mg/kg.
(§2) Gavage was performed by means of a metal tube, on batches of 5 animals for each series.
(§3) The animals were observed daily for 14 days.

[2] = test system: foreign-body (sponge) granuloma in rats; assay: Experimental granuloma induced by foreign body, histological study; format: in vivo, Wistar rats; details: both doses (50 and 100 mg/kg) oral, 8 days; Table XI
Procedure: This test consists in studying the subacute cellular phase which is developed in the 8 days which follow the implantation of a foreign body, a sponge of non-resorbable plastic, in the dorsal subcutaneous connective tissue in rats.
The granulomas formed are removed 8 days after the implantation; a histological study is carried out after fixing the tissue and staining sections with hematein/ eosin. The observation is more especially concerned with the cell population of the primary phase of the formation of the granulation tissue: the reticulohistocytic cells, lymphocytes and more especially the macrophages.
The animals used are Wistar rats weighing 120-140 g and of the same origin, maintained under the same conditions of housing throughout the treatment (8 days).
The compounds of the invention are administered orally, in a gum suspension, in the morning in a fasted state, using an oesophageal tube.
After 8 days of treatment, the rats are sacrificed by decapitation and the granulomas removed and prepared for the purpose of histological examination.
The experiment conditions are as follows:
The animals are distributed in batches of 10;
Each test product is administered at 2 doses, of 50 and 100 mg, respectively, to 2 batches of 10 animals;
Ketoprofen is used by way of reference product at the same 2 doses and under the same conditions; and
A batch of 10 control animals receives no treatment.
In this experiment, on the one hand a histological study of the granulomas is performed by sampling on day 8 (results recorded in Table XIa), and on the other hand a study of the weight of the granulomas was performed 10 days after the implantation (results recorded in Table XIb).

[3] = test system: rat hind foot kaolin-induced oedema; assay: Kaolin-induced arthritis test, first experiment (decrease in inflammation, foot volume); format: in vivo; details: 1 h before kaolin, Table IX, read-out: percentage decrease in the inflammation; for change in vivo at 25 mg/kg: 25 mg/kg oral; for change in vivo at 50 mg/kg: 50 mg/kg oral; for change in vivo at 100 mg/kg: 100 mg/kg oral
Procedure: The […] of 0.05 ml of a sterile 10% strength suspension of kaolin into the metatarsal flexor sheath of the hind foot of a rat initially induces an oedematous reaction. An inflammatory arthritis then forms.
The early oedematous reaction appears from the first hour, and reaches its maximum between the fourth hour and the sixth hour. This is the manifestation of interest. The assessment of the volume of the foot enables the action of substances on the oedematous reaction to be studied. The measurements are carried out using a Giono and Chevilard plethysmometer.
The test products are administered orally (stomach tube) one hour before the injection of the kaolin.
The results are expressed as a percentage decrease in the inflammation in the treated animals compared with a control series of animals.
The batches are of 10 animals per dose and 10 control animals.
The figures shown represent the mean of 10 animals.

[4] = Oral LD50 in rats; details: rat, in vivo, male Wistar rats, 200-400 g, 14 days observation, read-out: approximate oral LD50
Procedure: as §1, §2, §3

[5] = test system: rat hind foot carragheenin-induced oedema; assay: Carragheenin-induced oedema test; format: in vivo; details: 3 h, first experiment, Table X, read-out: percentage inhibition of the inflammation; for change in vivo at 25 mg/kg: 25 mg/kg oral; for change in vivo at 50 mg/kg: 50 mg/kg oral; for change in vivo at 100 mg/kg: 100 mg/kg oral
[6] = test system: pain threshold of brewer's yeast inflamed rat hind foot; assay: Randall and Sellitto's test (analgesic activity); format: in vivo; details: first experiment, Table XII, read-out: percentage increase in the mean pain threshold; for change in vivo at 25 mg/kg: 25 mg/kg oral; for change in vivo at 50 mg/kg: 50 mg/kg oral; for change in vivo at 100 mg/kg: 100 mg/kg oral
How it was run: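 Rats had 0.1 ml 20% brewer's yeast suspension injected under the hind-foot plantar aponeurosis; compounds dosed orally by stomach tube 1 h before yeast. Pain threshold was the pressure eliciting foot withdrawal, read at the 4–6 h plateau; result is % increase in mean threshold versus untreated controls, 10 rats per group.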

[7] = test system: thromboxane synthetase; assay: TXB2 production in human glomeruli (renal preparation model); format: cell-based; details: arachidonic acid 5 ug/ml
Procedure: (§4) Human glomeruli synthesize both thromboxanes, via thromboxane synthetase, and prostaglandins, via prostacyclin synthetase. The experiment consists in stimulating glomerular cells with arachidonic acid (5 ug/ml) and in assaying radioimmunologically the amount of thromboxane B2 (TXB2) and prostacyclin (PGI2) produced in the presence of increasing concentrations of test products (10^-6 M to 5×10^-5 M).
(§5) As for the previous model, the results are expressed as IC50 in comparison with a control suspension.

[8] = test system: 5-lipoxygenase; assay: Production of LTB4 and 5-HETE by human leukocytes incubated with arachidonic acid; format: cell-based; details: ionophore A 23187 5 μM, arachidonic acid 10 μg/ml
Procedure: Human polymorphonuclear leukocytes suspended with arachidonic acid and stimulated by calcium ionophore produce leukotrienes B4 (LTB4).
The test consists in incubating fresh human leukocytes with arachidonic acid at a dose of 10 μg/ml to which a tracer dose of tritium-labelled arachidonic acid has been added. The leukocytes are stimulated with calcium ionophore A 23187 (Calbiochem, 5 μM) and the amount of 5-hydroxyeicosatetraenoic acid (5-HETE) and LTB4 produced is then assayed by HPLC.
5-HETE is the metabolite produced from arachidonic acid by 5-lipoxygenase, and from which LTB4 is produced by the action of an isomerase.
The results are expressed as an integration of the surface of the peak obtained in HPLC by comparison with that obtained with control leukocytes which have not been incubated with the test products.
The results in brackets are expressed as a percentage inhibition of the production of 5-HETE and LTB4.

[9] = test system: prostacyclin synthetase; assay: PGI2 production in human glomeruli (renal preparation model); format: cell-based; details: arachidonic acid 5 ug/ml
Procedure: as §4, §5

[10] = test system: thromboxane synthetase; assay: TXB2 production in human platelet suspension (thromboxane synthetase); format: cell-based; details: human platelets, arachidonic acid 5 μg/ml, 37° C., read-out: IC50, inhibition of the production of TXB2
Procedure: The platelets are incubated with arachidonic acid (5 μg/ml) in the presence of increasing doses of test products (10^-6l M to 5×10^-5 M). Platelets stimulated by arachidonic acid (AA) manufacture a large amount of thromboxane A2 (TXA2), which can be measured radioimmunologically in the form of a stable metabolite TXB2.
The assay of the amount of TXB2 in the medium is performed after a 1- to 15- minute incubation at 37° C., the measurements being made in comparison with a control suspension which has not been incubated with the test products.
Results: These are expressed as IC50, that is to say as the concentration of the test product which permits 50% inhibition of the production of TXB2.

[11] = test system: biosynthesis of leukotrienes C4 (LTC4), human polymorphonuclear leukocytes; assay: LTC4 production in human polymorphonuclear leukocytes; format: cell-based; details: Leukocyte, 0.25 h, ionophore A 23187 5 μM, 15 min, 37° C., read-out: IC50, inhibition of the production of LTC4
Procedure: Human polymorphonuclear Leukocytes are stimulated by calcium ionophore A 23187 (Calbiochem, 5 μM), in the presence or absence of the test products.
After 15 minutes' incubation at 37° C., assay of the leukotrienes C4 (LTC4) is performed radioimmunologically.
The results are expressed as IC50, the concentration producing 50% inhibition of the production of LTC4, by comparison with a control suspension which has not been incubated in the presence of the test products.

With `O=C(c1ccccc1)c1ccccc1S(=O)(=O)NCCN1CCOCC1` [Compound 1341] the LD50 at 336 h [1] was 250 mg/kg and the “histological study of the granuloma” value [2] was “Inflammatory reaction distinctly attenuated”.
For `O=C(c1ccccc1)c1cc([N+](=O)[O-])ccc1S(=O)(=O)NCCCN1CCOCC1` [Compound 1361], the LD50 at 336 h [1] was > 1600 mg/kg, the “histological study of the granuloma” value [2] was “anti-inflammatory activity is exhibited” and the change in vivo at 25 mg/kg [3] was -25%. The change in vivo at 50 mg/kg [3] was -30%, the change in vivo at 100 mg/kg [3] was -48% and the LD50 at 336 h [4] was > 800 mg/kg. It also gave a change in vivo at 25 mg/kg [5] of -15%, a change in vivo at 50 mg/kg [5] of -25% and a change in vivo at 100 mg/kg [5] of -45%. The change in vivo at 25 mg/kg [6] was 20%, the change in vivo at 50 mg/kg [6] was 25% and the change in vivo at 100 mg/kg [6] was 45%.
In the case of `O=C(O)CCCNS(=O)(=O)c1ccc(Cl)cc1C(=O)c1ccccc1Cl` [Compound 1573], the LD50 at 336 h [1] is reported as > 3200 mg/kg, the “histological study of the granuloma” value [2] is reported as “the activity is very distinct” and the change in vivo at 25 mg/kg [3] is reported as -15%. It also gave a change in vivo at 50 mg/kg [3] of -30%, a change in vivo at 100 mg/kg [3] of -52% and a change in vivo at 25 mg/kg [5] of -17%. The change in vivo at 50 mg/kg [5] was -28%, the change in vivo at 100 mg/kg [5] was -50% and the change in vivo at 25 mg/kg [6] was 20%. It also gave a change in vivo at 50 mg/kg [6] of 35% and a change in vivo at 100 mg/kg [6] of 60%.
With `O=C(O)CCCCCCCCCCCNS(=O)(=O)c1ccc(Cl)c(C(=O)c2cccs2)c1` [Compound 1813] the IC50 [7] was 2000 nM, the “5-HETE, integration of the surface of the HPLC peak” value [8] was 181 and the IC50 [9] was > 50000 nM. For the same compound, the IC50 [10] was 11000 nM and the IC50 [11] was 1000 nM.
